In the supplement of paper PMC10627819:

Experiments:
B. subtilis 168 [1] = test: fitness (endpoint OD595 vs no drug) (fraction); higher = more growth
In short: (§1)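 Fitness was defined as the optical density at the transition into stationary phase relative to the robust mean of no-drug control wells. Values were capped at 1. Cultures were started at OD595 0.01 in 384-well plates (30 µl, or 55 µl for S. pneumoniae) in TSB, LB Lennox or CY at 37 °C. OD595 was recorded every 30 min over 14 h, with the first reading subtracted as background.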

S. aureus Newman [2] = test: as above
In short: as §1

S. pneumoniae D39V [3] = test: as above
In short: as §1

S. aureus DSM 20231 = test: Bliss interaction score (quartile over a dose matrix) (fitness difference); higher = more antagonism (negative = synergy)
In short: (§2)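 Growth in each well was taken as OD595 at entry into stationary phase. Dividing by the plate's robust no-drug mean and capping at 1 gave fitness, and single-drug fitness was inferred from the combination data. The Bliss score, observed minus product-expected fitness, is summarised by quartiles over technical, biological and donor/recipient replicates.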

B. subtilis 168 [4] = test: as above
In short: as §2

S. aureus Newman [5] = test: as above
In short: as §2

S. pneumoniae D39V [6] = test: as above
In short: as §2
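For Bliss interaction score (quartile over a dose matrix) in this document: first quartile when negative (synergy) and third quartile when positive (antagonism).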

CCC[C@@H]1C[C@@H](C(=O)N[C@@H]([C@H]2O[C@H](SC)[C@H](O)[C@@H](O)[C@H]2O)[C@H](C)Cl)N(C)C1 [Clindamycin] + CN[C@@H]1[C@H](O[C@H]2[C@H](O[C@H]3[C@H](O)[C@@H](O)[C@H](N=C(N)N)[C@@H](O)[C@@H]3N=C(N)N)O[C@@H](C)[C@]2(O)C=O)O[C@@H](CO)[C@H](O)[C@H]1O [Streptomycin]
fitness, one replicate
Conditions	first compound 0.0039 µg/mL	first compound 0.0078 µg/mL	first compound 0.015 µg/mL	first compound 0.0156 µg/mL	first compound 0.03 µg/mL	first compound 0.06 µg/mL
B. subtilis 168 [1], partner 2 µg/mL	≥ 1	0.855	–	0.895	–	–
B. subtilis 168 [1], partner 4 µg/mL	≥ 1	1	–	0.951	–	–
B. subtilis 168 [1], partner 8 µg/mL	0.994	0.85	–	0.853	–	–
S. pneumoniae D39V [3], partner 2 µg/mL	–	–	0.889	–	0.767	0.621
S. pneumoniae D39V [3], partner 16 µg/mL	–	–	0.712	–	0.564	0.424

fitness
Conditions	partner 1 µg/mL	partner 2 µg/mL	partner 4 µg/mL	partner 8 µg/mL
B. subtilis 168 [1], first compound 0.0625 µg/mL	–	0.531	0.082	0.0325
B. subtilis 168 [1], first compound 0.125 µg/mL	–	0.398	0.0693	0.0279
B. subtilis 168 [1], first compound 0.25 µg/mL	–	0.105	0.0596	0.0359
S. aureus Newman [2], first compound 0.0312 µg/mL	0.679	0.571	–	–
S. aureus Newman [2], first compound 0.125 µg/mL	0.123	0.0638	0.0582	–
S. pneumoniae D39V [3], first compound 0.0125 µg/mL	–	0.646	0.69	0.733
S. pneumoniae D39V [3], first compound 0.015 µg/mL	–	–	0.837	0.786
S. pneumoniae D39V [3], first compound 0.025 µg/mL	–	0.445	0.426	0.46
S. pneumoniae D39V [3], first compound 0.03 µg/mL	–	–	0.71	0.646
S. pneumoniae D39V [3], first compound 0.05 µg/mL	–	0.177	0.21	0.202
S. pneumoniae D39V [3], first compound 0.06 µg/mL	–	–	0.586	0.544

Conditions	Bliss interaction score
B. subtilis 168 [4]	-0.101
S. aureus DSM 20231	-0.0299
S. aureus Newman [5]	-0.0908
S. pneumoniae D39V [6]	-0.0581

O=C(O[C@@H]1Cc2c(O)cc(O)cc2O[C@@H]1c1cc(O)c(O)c(O)c1)c1cc(O)c(O)c(O)c1 [EGCG] + CC(C1CCC(C(O1)OC2C(CC(C(C2O)OC3C(C(C(CO3)(C)O)NC)O)N)N)N)NC [Gentamicin]
fitness, main component drawn
Conditions	first compound 6.25 µg/mL	first compound 12.5 µg/mL	first compound 25 µg/mL	first compound 50 µg/mL
B. subtilis 168 [1], partner 0.0625 µg/mL	0.944	–	–	–
B. subtilis 168 [1], partner 0.125 µg/mL	0.814	–	–	–
B. subtilis 168 [1], partner 0.25 µg/mL	–	–	0.142	–
S. aureus Newman [2], partner 0.5 µg/mL	–	0.738	0.69	0.584
S. aureus Newman [2], partner 1 µg/mL	–	0.795	0.754	0.704
S. aureus Newman [2], partner 2 µg/mL	–	0.797	0.766	0.709
S. pneumoniae D39V [3], partner 2 µg/mL	–	0.922	0.947	0.913
S. pneumoniae D39V [3], partner 4 µg/mL	–	0.947	≥ 1	0.989
S. pneumoniae D39V [3], partner 8 µg/mL	–	0.936	0.945	0.942

fitness, S. aureus Newman [2], one replicate, main component drawn
Conditions	first compound 12.5 µg/mL	first compound 25 µg/mL	first compound 50 µg/mL
partner 0.375 µg/mL	0.802	0.805	0.993
partner 0.75 µg/mL	0.773	0.762	0.62
partner 1.5 µg/mL	0.251	0.0762	0

main component drawn
Conditions	Bliss interaction score
B. subtilis 168 [4]	0.329
S. aureus DSM 20231	0.0682
S. aureus Newman [5]	-0.123
S. pneumoniae D39V [6]	0.09
